From US20150238425A1, “MINI-TABLETS” (DSM SINOCHEM PHARMACEUTICALS NETHERLANDS B.V., priority 2012, published 2015) come the findings set out here.

A short description of series [1]: Stability of mini-tablets containing clavulanic acid compared to a clavulanic acid reference sample as a function of time. Format: physicochemical. On the procedure:
(§1) The 8 mini-tablets prepared in Example 1 and an amoxicillin reference sample were analyzed for stability. Stability data for clavulanic acid in mini-tablets compared to a clavulanic acid reference sample were also analyzed for stability.

A short description of series [2]: Stability of mini-tablets (Series 1-8) compared to an amoxicillin reference sample as a function of time. Format: physicochemical. On the procedure: as §1

For the compound `O=C(O)[C@H]1/C(=C/CO)O[C@@H]2CC(=O)N21` [Clavulanic acid reference, Clavulanic acid], the Stability (clavulanic acid) as a function of time was 100% in series [1] (0 weeks), 86.4% in series [1] (1 week) and 88.4% in series [1] (26 weeks).
For the compound `CC1(C)S[C@@H]2[C@H](NC(=O)[C@H](N)c3ccc(O)cc3)C(=O)N2[C@H]1C(=O)O` [Amoxicillin reference, Amoxicillin], the “Stability (amoxicillin) as a function of time” value was 100.0 in series [2] (0 weeks), 100.0 in series [2] (1 week) and 97.8 in series [2] (49 weeks).
